Measured values taken from patent US20150344485A1, “BICYCLIC PYRIMIDONE COMPOUNDS AS INHIBITORS OF LP-PLA2” (GLAXOSMITHKLINE INTELLECTUAL PROPERTY DEVELOPMENT LIMITED, priority 2013, published 2015).
Read-outs that look alike come from different tables or passages of the source.

Tests used:
[1] = target: T1, recombinant human Lp-PLA2 (Homo sapiens, UniProt Q13093); assay: Recombinant human Lp-PLA2 assay (rhLp-PLA2, PED6 assay); format: biochemical
T1 sequence (Q13093 22-441): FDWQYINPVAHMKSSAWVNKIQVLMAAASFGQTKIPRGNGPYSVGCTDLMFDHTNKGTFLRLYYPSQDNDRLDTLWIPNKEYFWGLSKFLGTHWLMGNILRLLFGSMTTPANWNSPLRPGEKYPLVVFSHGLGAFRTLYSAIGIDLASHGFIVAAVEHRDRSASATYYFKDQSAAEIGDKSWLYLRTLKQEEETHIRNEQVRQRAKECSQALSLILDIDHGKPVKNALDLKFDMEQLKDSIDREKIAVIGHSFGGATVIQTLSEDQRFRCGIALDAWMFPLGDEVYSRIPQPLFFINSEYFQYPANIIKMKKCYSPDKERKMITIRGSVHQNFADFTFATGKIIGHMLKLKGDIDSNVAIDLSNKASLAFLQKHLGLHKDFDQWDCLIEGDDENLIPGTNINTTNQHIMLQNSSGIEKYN
From the text: (1) Recombinant Human Lp-PLA2 Assay (rhLp-PLA2) (Also Referred to as “PED6” Assay)
N-((6-(2,4-dinitrophenyl)amino)-hexanoyl)-2-(4,4-difluoro-5,7-dimethyl-4-bora-3a,4a-diaza-s-indacene-3-pentanoyl)-1-hexadecanoyl-sn-glycero-3-phosphoethanolamine, triethylammonium salt (PED6) is a commercially available fluorescently-labeled phospholipid, which is commercially available from Invitrogene and Molecular Probes. There is a quenching para-nitro phenyl (PNP) group in the sn3 position and a Bodipy fluorescein (FL) group in the sn2 position. Upon cleavage with Lp-PLA2, the Bodipy FL group is liberated and then may result in an increase in fluorescence. Inhibitors of Lp-PLA2 therefore prevent this cleavage and no fluorescent increase is observed.
The PED6 assay was run as an unquenched 10 μL assay. The source plate containing the compounds to be tested was prepared by making 1:3 (by volume) serial dilution of the compounds within DMSO on 384-well microplate. Then, 0.01 μL of the compounds on compound source plate were transferred into 384 well Greiner 784076 (black) plates using ECHO liquid dispenser. 5 μL of recombinant human Lp-PLA2 enzyme (4 nM (or 110 pM) rhLp-PLA2 in assay buffer of 50 mM HEPES, pH 7.4, 150 mM NaCl, 1 mM CHAPS) was added to each well of the plate. Plates were centrifuged for 10 sec at 500 rpm. After 30 minutes preincubation, 5 μL of substrate (4 μM (or 5 μM) PED6 [from 5 mM DMSO stock] in assay buffer of 50 mM HEPES, pH 7.4, 150 mM NaCl, 1 mM CHAPS) was added to 384 well Greiner 784076 (black) plates. Plates were centrifuged for 10 sec at 500 rpm. The plate was covered to protect it from light and incubated for 20 min at room temperature. The plates were read for fluorescence intensity at ex: 480/em: 540 using ViewLux microplate imager for Envision spectrofluroimeters. pIC50 data, curve and QC analysis was conducted by using XL fit module in Excel.

[2] = target: T2, Lp-PLA2 in human plasma (Homo sapiens, UniProt Q13093); assay: Lp-PLA2 human plasma assay (Thio-PAF assay); format: biochemical; details: pooled human plasma; read-out: pIC50 values in the thio-PAF assay (converted)
T2 construct: from tissue; host or cells: pooled human plasma
T2 sequence (Q13093 22-441): T1 sequence (Q13093 22-441)
From the text: The human plasma assay utilizes a thioester analog of PAF (phosphatidylcholine), where hydrolysis yields to the formation of a phospholipid containing a free thiol group. The amount of thiol is quantitated continuously by reacting with CPM (7-diethylamino-3-(4′-maleimidylphenyl)-4-methylcoumarin), a maleimide which increases in fluoresence after Michael addition of thiols. This assay may detect the activity of Lp-PLA2 in human plasma, as determined by specific inhibition by Lp-PLA2 inhibitors.
The thio-PAF assay was run as a quenched 15 μL assay. Compounds source plate was prepared by making 1:3 (by volume) serial dilution of the compounds into pure DMSO on 384-well microplate. 0.01 μL of compounds on compound source plate were transferred to 384 well Greiner 784076 (black) low-volume plates by ECHO liquid dispenser. 8 μL pooled human plasma, which was previously aliquoted and frozen, was added. Plates were centrifuged for 10 sec at 500 rpm. After 30 minutes preincubation, 2 μL of substrate solution comprising 2.5 mM 2-thio-PAF [from ethanol stock], 32 μM CPM [from a DMSO stock] and 3.2 mM NEM (N-ethylmaleimide) [made fresh daily in DMSO] in assay buffer of 50 mM HEPES, pH 7.4, 150 mM NaCl, 1 mM CHAPS was added to 384 well Greiner 784076 (black) low-volume plates by BRAVO liquid handling station. After 2 mins, reaction was quenched with 5 μL of 5% aqueous trifluoroacetic acid (TFA). Plates were covered to protect from light and incubated for 40 min at room temperature. Plates were read at ex: 380/em: 485 using-Envision microplate reader. pIC50 data, curve and QC analysis was conducted by using XLFit module in Excel.

[3] = read-out: pIC50 values in the recombinant human Lp-PLA2 assay (converted)
[4] = read-out: rhLp-PLA2 (PED6 assay) (pIC50) (converted)

SMILES	IC50 [1, 3]	IC50 [1, 4]	IC50 [2]
CC1CCn2c(cc(OCc3cc(F)c(Oc4cccc(F)c4)c(F)c3)nc2=O)N1 (centres unmarked) [E5, 8-((3,5-difluoro-4-(3-fluorophenoxy)benzyl)oxy)-2-methyl-3,4-dihydro-1H-pyrimido[1,6-a]pyrimidin-6(2H)-one]	≤ 1 nM	0.398 nM	–
[2H]C([2H])(Oc1cc2n(c(=O)n1)CC[C@@H](C)N2C)c1cc(F)c(F)cc1F [E23, (R)-8-(dideutero(2,4,5-trifluorophenyl)methoxy)-1,2-dimethyl-3,4-dihydro-1H-pyrimido[1,6-a]pyrimidin-6(2H)-one]	–	12.6 nM	–
[2H]C([2H])(Oc1cc2n(c(=O)n1)CCC(C)(C)N2C)c1cc(F)c(F)c(F)c1 [E55, 8-(dideutero(3,4,5-trifluorophenyl)methoxy)-1,2,2-trimethyl-3,4-dihydro-1H-pyrimido[1,6-a]pyrimidin-6(2H)-one]	–	–	≤ 100 nM
C[C@H]1CCn2c(cc(OCc3cc(F)c(Oc4ccc(Cl)c(F)c4)c(F)c3)nc2=O)N1C [E58, (S)-8-((4-(4-chloro-3-fluorophenoxy)-3,5-difluorobenzyl)oxy)-1,2-dimethyl-3,4-dihydro-1H-pyrimido[1,6-a]pyrimidin-6(2H)-one]	–	–	≤ 10 nM
C[C@H]1CCn2c(cc(OCc3cc(F)c(Oc4cccc(Cl)c4)c(F)c3)nc2=O)N1C [E59, (S)-8-((4-(3-chlorophenoxy)-3,5-difluorobenzyl)oxy)-1,2-dimethyl-3,4-dihydro-1H-pyrimido[1,6-a]pyrimidin-6(2H)-one]	–	–	≤ 100 nM
C[C@H]1CCn2c(cc(OCc3ccc(Oc4ccc(C(F)(F)F)cc4)c(C#N)c3)nc2=O)N1C [E61, (S)-5-(((1,2-dimethyl-6-oxo-2,3,4,6-tetrahydro-1H-pyrimido[1,6-a]pyrimidin-8-yl)oxy)methyl)-2-(4-(trifluoromethyl)phenoxy)benzonitrile]	–	–	≤ 10 nM
C[C@@H]1CCn2c(cc(OCc3cc(F)c(Oc4ccc(Cl)c(F)c4)c(F)c3)nc2=O)N1C [E63, (R)-8-((4-(4-chloro-3-fluorophenoxy)-3,5-difluorobenzyl)oxy)-1,2-dimethyl-3,4-dihydro-1H-pyrimido[1,6-a]pyrimidin-6(2H)-one]	–	–	≤ 10 nM
C[C@@H]1CCn2c(cc(OCc3cc(F)c(Oc4cccc(Cl)c4)c(F)c3)nc2=O)N1C [E64, (R)-8-((4-(3-chlorophenoxy)-3,5-difluorobenzyl)oxy)-1,2-dimethyl-3,4-dihydro-1H-pyrimido[1,6-a]pyrimidin-6(2H)-one]	–	–	≤ 10 nM
CN1c2cc(OCc3cccc(F)c3F)nc(=O)n2CCC1(C)C [E72, 8-((2,3-difluorobenzyl)oxy)-1,2,2-trimethyl-3,4-dihydro-1H-pyrimido[1,6-a]pyrimidin-6(2H)-one]	–	–	≤ 100 nM
CN1c2cc(OCc3cc(F)cc(F)c3)nc(=O)n2CCC1(C)C [E74, 8-((3,5-difluorobenzyl)oxy)-1,2,2-trimethyl-3,4-dihydro-1H-pyrimido[1,6-a]pyrimidin-6(2H)-one]	–	–	≤ 100 nM
CC(C)Oc1c(F)cc(COc2cc3n(c(=O)n2)CC[C@@H](C)N3C)cc1F [E82, (R)-8-((3,5-difluoro-4-isopropoxybenzyl)oxy)-1,2-dimethyl-3,4-dihydro-1H-pyrimido[1,6-a]pyrimidin-6(2H)-one]	≤ 1 nM	0.126 nM	–
CN1c2cc(OCc3cccc(F)c3)nc(=O)n2CCC1(C)C [E134, 8-((3-fluorobenzyl)oxy)-1,2,2-trimethyl-3,4-dihydro-1H-pyrimido[1,6-a]pyrimidin-6(2H)-one]	–	–	≤ 100 nM
CC(C)N1c2cc(OCc3cccc(F)c3F)nc(=O)n2CC[C@@H]1C [E139, (S)-8-((2,3-difluorobenzyl)oxy)-1-isopropyl-2-methyl-3,4-dihydro-1H-pyrimido[1,6-a]pyrimidin-6(2H)-one]	–	–	≤ 100 nM

Other lines, results leading:

IC50 [1, 3]	IC50 [1, 4]	IC50 [2]	SMILES
–	7.94 nM	–	C[C@@H]1CCn2c(cc(OCc3ccc(OC4CCCC4)c(F)c3)nc2=O)N1C [E48, (R)-8-((4-(cyclopentyloxy)-3-fluorobenzyl)oxy)-1,2-dimethyl-3,4-dihydro-1H-pyrimido[1,6-a]pyrimidin-6(2H)-one]
–	50.1 nM	–	CC(C)Oc1ccc(COc2cc3n(c(=O)n2)CC[C@@H](C)N3C)cc1F [E51, (R)-8-((3-fluoro-4-isopropoxybenzyl)oxy)-1,2-dimethyl-3,4-dihydro-1H-pyrimido[1,6-a]pyrimidin-6(2H)-one]
–	–	≤ 10 nM	C[C@H]1CCn2c(cc(OCc3ccc(Oc4ccc(Cl)c(F)c4)c(C#N)c3)nc2=O)N1C [E66, (S)-2-(4-chloro-3-fluorophenoxy)-5-(((1,2-dimethyl-6-oxo-2,3,4,6-tetrahydro-1H-pyrimido[1,6-a]pyrimidin-8-yl)oxy)methyl)benzonitrile]
–	5.01 nM	–	C[C@@H]1CCn2c(cc(OCc3ccc(OC4CCCCC4)c(F)c3)nc2=O)N1C [E67, (R)-8-((4-(cyclohexyloxy)-3-fluorobenzyl)oxy)-1,2-dimethyl-3,4-dihydro-1H-pyrimido[1,6-a]pyrimidin-6(2H)-one]
≤ 1 nM	–	–	CC(C)N1c2cc(OCc3ccc(F)c(F)c3)nc(=O)n2CC[C@H]1C [E69, (R)-8-((3,4-difluorobenzyl)oxy)-1-isopropyl-2-methyl-3,4-dihydro-1H-pyrimido[1,6-a]pyrimidin-6(2H)-one]
≤ 1 nM	–	–	C[C@H]1CCn2c(cc(OCc3cc(F)c(OC4CCCCC4)c(F)c3)nc2=O)N1C [E81, (S)-8-((4-(cyclohexyloxy)-3,5-difluorobenzyl)oxy)-1,2-dimethyl-3,4-dihydro-1H-pyrimido[1,6-a]pyrimidin-6(2H)-one]
≤ 1 nM	–	–	C[C@@H]1CCn2c(cc(OCc3cc(F)c(OC4CCCCC4)c(F)c3)nc2=O)N1C [E83, (R)-8-((4-(cyclohexyloxy)-3,5-difluorobenzyl)oxy)-1,2-dimethyl-3,4-dihydro-1H-pyrimido[1,6-a]pyrimidin-6(2H)-one]
≤ 1 nM	–	–	CC(C)Oc1c(F)cc(COc2cc3n(c(=O)n2)CC[C@H](C)N3C)cc1F [E100, (S)-8-((3,5-difluoro-4-isopropoxybenzyl)oxy)-1,2-dimethyl-3,4-dihydro-1H-pyrimido[1,6-a]pyrimidin-6(2H)-one]
–	–	≤ 100 nM	C[C@@H]1CCn2c(cc(OCc3cccc(C#N)c3)nc2=O)N1C [E127, (R)-3-(((1,2-dimethyl-6-oxo-2,3,4,6-tetrahydro-1H-pyrimido[1,6-a]pyrimidin-8-yl)oxy)methyl)benzonitrile]
–	–	≤ 100 nM	C[C@H]1CCn2c(cc(OCc3cccc(C#N)c3)nc2=O)N1C [E128, (S)-3-(((1,2-dimethyl-6-oxo-2,3,4,6-tetrahydro-1H-pyrimido[1,6-a]pyrimidin-8-yl)oxy)methyl)benzonitrile]
–	–	≤ 100 nM	C[C@@H]1CCn2c(cc(OCc3cccc(F)c3)nc2=O)N1C [E130, (R)-8-((3-fluorobenzyl)oxy)-1,2-dimethyl-3,4-dihydro-1H-pyrimido[1,6-a]pyrimidin-6(2H)-one]
